In patent US20200270309A1, “MALEIMIDE GROUP-MODIFIED ANGIOGENESIS INHIBITOR HM-1 AND USE THEREOF” (NANJING ANJI BIOLOGICAL TECHNOLOGY CO., LTD, priority 2017, published 2020):
Like-named read-outs stand apart in the source and are kept apart here. Peptide text beside a SMILES is read from it. * marks the point of attachment. Hexanoyl(6-maleimido) = O=C1C=CC(=O)N1CCCCCC(=O)*; X4 = O=C1C=CC(=O)N1CCOCCOCCOCCOCCCCCCCC(=O)*; X5 = O=C1C=CC(=O)N1CCOCCOCCOCCOCCOCCOCC(=O)*; X53 = O=C1C=CC(=O)N1CCOCCOCCOCCOCCCCCCC(=O)*; X24 = O=C1C=CC(=O)N1CCOCCOCCOCCOCCOCCC(=O)*; X32 = O=C1C=CC(=O)N1CCOCCOCCC(=O)*

Experiment: Half-lives and pharmacokinetic parameters of polypeptides vs HM-1
Parameters: AUC0-∞: concentration or dose not given beside the values
Conditions: in vivo
[1] = read-out: T1/2β (half-life) (converted)

SMILES	AUC(0-inf)	MRT inf	clearance	half-life (T1/2β (half-life))	AUC0-∞	half-life [1]	AUC(0-inf) (read-out: AUC0-∞)	clearance (read-out: CL (converted))	MRT inf (read-out: MRT0-∞)
C[C@H](NC(=O)CNC(=O)[C@H](CCCNC(=N)N)NC(=O)COCCOCCOCCOCCOCCOCCN1C(=O)C=CC1=O)C(=O)N[C@@H](CC(=O)O)C(=O)N[C@@H](CCCNC(=N)N)C(=O)N[C@@H](C)C(=O)NCC(=O)NCC(=O)NCC(=O)NCC(=O)N[C@@H](CCCNC(=N)N)C(=O)NCC(=O)N[C@@H](CC(=O)O)C(=O)O [X84] (X5-RGADRAGGGGRGD-OH)	29100 ± 8230 ng·h/mL	52.1 ± 10.3 h	0.573 mL/min/kg	36.09 ± 0.28 h					
C[C@H](NC(=O)CNC(=O)[C@H](CCCNC(=N)N)NC(=O)CCOCCOCCN1C(=O)C=CC1=O)C(=O)N[C@@H](CC(=O)O)C(=O)N[C@@H](CCCNC(=N)N)C(=O)N[C@@H](C)C(=O)NCC(=O)NCC(=O)NCC(=O)NCC(=O)N[C@@H](CCCNC(=N)N)C(=O)NCC(=O)N[C@@H](CC(=O)O)C(=O)O [X57] (X32-RGADRAGGGGRGD-OH)	33800 ± 8180 ng·h/mL	60.5 ± 10.5 h	0.493 mL/min/kg	41.93 ± 0.24 h					
C[C@H](NC(=O)CNC(=O)[C@H](CCCNC(=N)N)NC(=O)CCOCCOCCOCCOCCOCCN1C(=O)C=CC1=O)C(=O)N[C@@H](CC(=O)O)C(=O)N[C@@H](CCCNC(=N)N)C(=O)N[C@@H](C)C(=O)NCC(=O)NCC(=O)NCC(=O)NCC(=O)N[C@@H](CCCNC(=N)N)C(=O)NCC(=O)N[C@@H](CC(=O)O)C(=O)O [X78] (X24-RGADRAGGGGRGD-OH)	29800 ± 8510 ng·h/mL	53.4 ± 9.94 h	0.558 mL/min/kg	37.02 ± 0.31 h					
C[C@H](NC(=O)CNC(=O)[C@H](CCCNC(=N)N)NC(=O)CCCCCCOCCOCCOCCOCCN1C(=O)C=CC1=O)C(=O)N[C@@H](CC(=O)O)C(=O)N[C@@H](CCCNC(=N)N)C(=O)N[C@@H](C)C(=O)NCC(=O)NCC(=O)NCC(=O)NCC(=O)N[C@@H](CCCNC(=N)N)C(=O)NCC(=O)N[C@@H](CC(=O)O)C(=O)O [X75] (X53-RGADRAGGGGRGD-OH)	26700 ± 6960 ng·h/mL	47.8 ± 13.9 h	0.623 mL/min/kg	33.15 ± 0.25 h					
CC[C@H](C)[C@H](NC(=O)[C@H](Cc1c[nH]cn1)NC(=O)[C@H](CCC(N)=O)NC(=O)[C@H](CCCNC(=N)N)NC(=O)CCCCCN1C(=O)C=CC1=O)C(=O)N[C@@H](Cc1ccccc1)C(=O)N1CCC[C@H]1C(=O)N[C@@H](CO)C(=O)N[C@H](C(=O)N[C@@H](Cc1c[nH]c2ccccc12)C(=O)N[C@@H](Cc1ccccc1)C(=O)N[C@@H](Cc1c[nH]c2ccccc12)C(=O)N[C@@H](Cc1ccc(O)cc1)C(=O)N[C@@H](Cc1ccc(O)cc1)C(=O)N1CCC[C@H]1C(=O)N[C@@H](CC(=O)O)C(=O)N[C@@H](CCCNC(=N)N)C(=O)N[C@@H](CC(C)C)C(=O)N[C@@H](CCCCN)C(=O)N[C@@H](CCSC)C(=O)N[C@@H](CCCNC(=N)N)C(=O)N[C@@H](CCC(=O)O)C(=O)N[C@@H](CC(=O)O)C(=O)O)[C@@H](C)O [P4] ({Hexanoyl(6-maleimido)}-RQHIFPSTWFWYYPDRLKMRED-OH; C-terminus assumed)					0.0391 ± 0.0066 mg/L/h	31.72 ± 0.26 h			
CSCC[C@H](NC(=O)[C@H](Cc1c[nH]cn1)NC(=O)[C@H](CCC(N)=O)NC(=O)[C@H](CCCNC(=N)N)NC(=O)CCCCCN1C(=O)C=CC1=O)C(=O)N[C@@H](Cc1ccccc1)C(=O)N[C@@H](CO)C(=O)N[C@@H](Cc1c[nH]c2ccccc12)C(=O)N[C@H](C(=O)N[C@@H](CC(C)C)C(=O)N[C@@H](C)C(=O)N[C@@H](CCCNC(=N)N)C(=O)N[C@@H](CC(N)=O)C(=O)N[C@@H](CC(=O)O)C(=O)N[C@@H](CCC(N)=O)C(=O)N[C@@H](CCC(=O)O)C(=O)N[C@@H](CCC(=O)O)C(=O)N[C@@H](CCCNC(=N)N)C(=O)NCC(=O)N[C@@H](CC(=O)O)C(=O)O)C(C)C [P2] ({Hexanoyl(6-maleimido)}-RQHMFSWVLARNDQEERGD-OH; C-terminus assumed)					0.0350 ± 0.0076 mg/L/h	35.48 ± 0.3 h			
C[C@H](NC(=O)CNC(=O)[C@H](CCCNC(=N)N)NC(=O)CCCCCN1C(=O)C=CC1=O)C(=O)N[C@@H](CC(=O)O)C(=O)N[C@@H](CCCNC(=N)N)C(=O)N[C@@H](C)C(=O)NCC(=O)NCC(=O)NCC(=O)NCC(=O)N[C@@H](CCCNC(=N)N)C(=O)NCC(=O)N[C@@H](CC(=O)O)C(=O)O [X5] ({Hexanoyl(6-maleimido)}-RGADRAGGGGRGD-OH)						34.59 ± 0.29 h	27900 ± 7030 ng·h/mL	0.598 mL/min/kg	49.9 ± 13.2 h
C[C@H](NC(=O)CNC(=O)[C@H](CCCNC(=N)N)NC(=O)CCCCCCCOCCOCCOCCOCCN1C(=O)C=CC1=O)C(=O)N[C@@H](CC(=O)O)C(=O)N[C@@H](CCCNC(=N)N)C(=O)N[C@@H](C)C(=O)NCC(=O)NCC(=O)NCC(=O)NCC(=O)N[C@@H](CCCNC(=N)N)C(=O)NCC(=O)N[C@@H](CC(=O)O)C(=O)O [X76] (X4-RGADRAGGGGRGD-OH)	33900 ± 7640 ng·h/mL	60.6 ± 10.5 h	0.492 mL/min/kg	42.01 ± 0.33 h					
CC(C)[C@H](NC(=O)[C@H](C)NC(=O)CNC(=O)[C@H](CCCNC(=N)N)NC(=O)CCCCCN1C(=O)C=CC1=O)C(=O)N[C@@H](CC(=O)O)C(=O)N[C@@H](CCCNC(=N)N)C(=O)N[C@@H](C)C(=O)NCC(=O)NCC(=O)NCC(=O)NCC(=O)N[C@@H](CCCNC(=N)N)C(=O)NCC(=O)N[C@@H](CC(=O)O)C(=O)O [P10] ({Hexanoyl(6-maleimido)}-RGAVDRAGGGGRGD-OH; C-terminus assumed)						30.6 ± 0.31 h	24600 ± 7030 ng·h/mL	0.677 mL/min/kg	44.1 ± 11 h
